According to ChEMBL document CHEMBL1126203, “Synthesis and structure-activity relationships of a series of novel benzopyran-containing platelet activating factor antagonists” (J Med Chem, 1992):

Test system: Rattus norvegicus
Test: Compounds were evaluated by intravenous administration along with 100 ug/kg of PAF in rat
Format: functional

Structure (SMILES): CCOC(=O)COc1cc(C(C)CCCc2ccc(F)cc2)cc2c1C1=C(CCN(CC(=O)NC)C1)C(C)(C)O2 (stereo unspecified)
- ED50: 0.6 mg/kg
